Values quoted from earlier work in patent US20120219529A1, “Silver ion compositions of pectins” (George H. Scherr Trust, priority 2011, published 2012).

[Ag+].[Ag+].[O-2] [Ag2O]
solubility in water: insoluble in water
